Entries after “also recorded” stand apart in the source; their conditions may differ.
Key:
[1] = tested on: ConA stimulated human lymphocytes; assay: Human mitogenic (ConA) stimulation, 3H-thymidine incorporation; assay type: cell-based; details: for activation / proliferative response: 5 μg/ml ConA, harvest 72 hours, drug titration (FIGS. 7A, 8A, 9A, 17, 33)
Protocol: Blood from healthy volunteers was drawn using venipuncture, using Vacutainer collection sets and heparinized collection vials. The blood was diluted 1:1 using HBSS to a total volume of 30 ml in 50 ml conical tubes (Fisher Scientific, Co., Pittsburgh, Pa.). […] Cells from the buffy coats were collected and the residual Histopaque was washed away using repeated centrifugations in HBSS. After washes, cells were resuspended at 5 million cells per ml in RPMI, supplemented with 2% FBS. To remove adherent cells, the suspension was plated onto a 6 well flat-bottom plate (Corning Costar), 3 ml/well, and incubated for 2 hours at 37° C., 5% CO2. Non-adherent cells were harvested after this incubation, were counted and resuspended in RPMI supplemented with 10% human serum (Sigma).
All drugs were pre-plated before the cell suspension was added onto each well of a 96-well round-bottom plate. All experimental conditions were assayed in at least triplicate. Cells suspended in RPMI supplemented with 10% human serum were plated at 100,000 cells per well to a final volume of 200 μl. […] Control samples received no ConA stimulation. The plates were incubated at 37° C. and 5% CO2.

RPMI 8226 cells [2] = assay: DNA fragmentation (internucleosomal laddering); assay type: cell-based, human; details: RPMI 8226 cells (FIGS. 26, 35)
Protocol: Cells (8×10^5) were washed with ice-cold PBS following experimental treatments and pelleted by centrifugation (500×g, 5 min). Cell pellets were incubated for 5 minutes on ice in lysis buffer (1% IGEPAL-CA630, 20 mM EDTA, 50 mM Tris-HCL, pH 7.5). Lysates were centrifuged at about 1,600×g for 5 minutes. 501 μL of lysis buffer was added to the supernatant. The extract was brought to 1% SDS and treated for 2 hours with 5 μg/μL Rnase A (57° C.) followed by treatment with 2.5 μg/μL proteinase K for 2 hours (37° C.). After digestion of RNA and protein, half volume of 10 M ammonium acetate was added and the DNA was precipitated using 2.5 volumes of ethanol, washed in 70% ethanol, air-dried, and dissolved in TE buffer. DNA fragments were separated by electrophoresis in 1.5% agarose gels using a protocol adapted from Siegel et al. (1998, Proc. Natl. Acad. Sci. USA 95:162-166).

RPMI 8226 cells [3] = assay: Annexin V / propidium iodide flow cytometry; assay type: cell-based, human; details: RPMI 8226 cells (FIGS. 27, 34)
Protocol: Early apoptotic cells were detected by co-staining cells previously exposed to each experimental condition. Briefly, cells were incubated during a time course in the presence of various concentrations of each experimental or control apoptosis inducing agent as set forth elsewhere herein. After incubation, the cells were washed with ice-cold PBS, stained with Annexin V-Alexa flour 488 and Propidium Iodide (Molecular Probes, Eugene, Oreg.) and analyzed by dual-color flow cytometry. Annexin V^+ and PI^− cells were considered as early apoptotic cells. The known terminal differentiator of myeloma cells, HMBA (hexamethylene-bis-acetamide), and the topoisomerase inhibitor, camtothecin, were used as positive controls for apoptosis at 5 mM and 2 μM, respectively.
Therefore, the degree of apoptosis in a cell population can be ascertained by assessing the presence of annexin-V positive cells and the absence of propidium iodide (PI) staining cells (necrotic cells). […] The extent of apoptosis was determined by analyzing flow cytometry data and generating FACS plots, which were then gated to include only the population of cells which were PI negative (non-necrotic). The degree of annexin-V positive cells was then measured in this PI negative cell population as a measure of apoptosis (FIG. 34).

[4] = In vivo screen for sedation / CNS effects after i.v. injection; design: species or system BALB/c mice
Protocol: Both QSS5 and QSS6 were assayed in vivo for the immediate ‘sleep’ effect.

[5] = tested on: Chronic Lymphocytic Leukemia tumor cells; assay: Ex planted bone marrow aspirates from a CLL patient; assay type: cell-based, human
human 5HT2C-INI receptor = target: T1, human 5HT2C-INI receptor (Homo sapiens, UniProt P28335); details: HEK-293 cells, data from Rauser et al. 2001 (FIG. 38); cited from earlier work
T1 sequence (P28335 33-458): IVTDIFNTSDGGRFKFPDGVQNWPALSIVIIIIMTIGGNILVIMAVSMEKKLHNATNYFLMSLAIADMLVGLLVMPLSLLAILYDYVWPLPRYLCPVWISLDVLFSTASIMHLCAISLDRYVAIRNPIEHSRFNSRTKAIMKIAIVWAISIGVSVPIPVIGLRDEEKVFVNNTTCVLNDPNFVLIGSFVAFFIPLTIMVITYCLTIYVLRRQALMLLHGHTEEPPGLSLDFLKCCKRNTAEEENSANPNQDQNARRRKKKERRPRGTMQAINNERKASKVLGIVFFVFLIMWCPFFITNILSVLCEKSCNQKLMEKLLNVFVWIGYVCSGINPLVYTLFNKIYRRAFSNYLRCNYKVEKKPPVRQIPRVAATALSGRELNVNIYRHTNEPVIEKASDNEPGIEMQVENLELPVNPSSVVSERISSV

[6] = tested on: allogeneic stimulation of human lymphocytes; assay: Human mixed lymphocyte reaction (allogeneic stimulation), 3H-thymidine; assay type: cell-based
Excerpt: Blood from two healthy, non-related, donors was taken as described above. Peripheral blood mononuclear cells were isolated as described previously elsewhere. The adherent cells were separated from the suspension cells as described previously for both donors. Suspension cells from both donors (donors A and B) were used as responders. The remaining adherent cells from each of the donors were used as stimulators against a different donor (suspension A against adherent B and adherent A against suspension B). The stimulator cells were irradiated at 35 Gy. Drugs were pre-plated onto 96 well, U-bottom plates in triplicate. 200,000 “stimulator” cells in RPMI supplemented with 10% human serum were then plated in each well. 200,000 “responder” cells in the same medium were then plated over stimulators to a final volume of 200 μl/well. Background controls received either no stimulator cells, or no responder cells. The plates were incubated at 37° C. and 5% CO2. 1 μCi of tritiated thymidine was added to each well after 4.5 days, and the plates were harvested 12 hours later.

[7] = tested on: RPMI 8226 multiple myeloma cells; assay: RPMI 8226 cell viability and proliferation (trypan blue, MTT, 3H-thymidine); assay type: cell-based, human; details: 3H-thymidine uptake, drug titration (FIGS. 19-25, 31, 32)
Protocol: The human plasmacytoma (multiple myeloma) cell line, RPMI 8226 (American Type Culture Collection, Manassas, Va.), was cultured in RPMI 1640 supplemented with 10 mM HEPES, 1 mM sodium pyruvate, 4.5 g/L glucose, 1.5 g/L bicarbonate and 20% FBS (non-heat inactivated).
Cell proliferation was assayed by three methods—Trypan Blue Exclusion was used to quantify the number of viable cells in culture; 3-(4,5-dimethylthiazol-2-yl)-2,5-diphenyl tetrazolium bromide (MTT) reduction was used to assay mitochondrial activity (and thus cell viability); and ^3H-Thymidine uptake was employed to assay for active DNA synthesis.
Three separate indicators of cell proliferation were employed to study the effects of 5-HT receptor modulating agents on the human multiple myeloma cell line, RPMI 8226. Cells were plated at 4 separate densities and were treated with LY53587 (an antagonist of the 5-HT2A/2B/2C receptors) at a range of concentrations. The exclusion of trypan blue dye was used as an indicator of cell viability. Cell numbers were then plotted against the concentration of drug added.
MTT reduction was also used as an indicator of cell viability (more specifically, mitochondrial activity). Absorbance values at OD570 were then plotted against drug concentration. Finally, DNA synthesis was assayed, through the measurement of ^3H-thymidine uptake, and counts per minute (CPMs) were plotted against drug concentration.
Culturing and administration of drugs and ^3H-thymidine were performed as described elsewhere herein.

RPMI-8226 cells = assay: Cytospin histochemistry (H&E, bis-benzamide) for chromatin; assay type: cell-based, human; details: 9 hour treatments; 50 μM SB compounds, 2 μM camptothecin (FIGS. 28, 29)
Protocol: 2.0×10^5 RPMI-8226 cells were cultured, in 6-well culture plates, in the presence of the indicated drug concentrations, in a total of 5 mL RPMI-1640 supplemented with 10% FBS. Each well was harvested in its entirety and divided into two identical samples for cytospins.
1.0×10^5 RPMI-8226 cells from each treatment group were loaded into Cyto-funnels and centrifuged at 500 rpm for 4 minutes with medium acceleration. Slides were then fixed through graded methanol in PBS (100%, 5 minutes; 80%, 5 minutes; 50%, 5 minutes), washed for 5 minutes in PBS and stored in PBS at 4° C. until stained.
Cytospun slides were stained with Hematoxylin and Eosin, followed by the nuclear stain, bis-benzamide, rinsed and mounted according to standard staining protocols. Slides were visualized under both brightfield and fluorescent light to generate matched images of the same slide field (see, e.g., FIGS. 28 and 29).

cells = assay: Cell morphology change on inhibition of serotonergic signalling; assay type: cell-based; details: after 24 hours of treatment (FIG. 30)
Protocol: Briefly, cells were incubated with a 5-HTR antagonist (e.g., a selective type 1B inhibitor SD 216641) and the effects of treatment were assessed after 24 hours. […] For instance, detection of cell changes can be assessed using optical instruments (electron and light microscopy, as well as fluorescence activated cell sorting, and the like), or any other device that assesses and detects changes in cell size, density, morphology, and the like. Such devices are well known in the art and are not recounted here.

AKT = assay: Western blot of phospho-(ser473)-AKT; assay type: cell-based, human; details: RPMI-8226 cells, 0, 6.25, 12.5, 25 μM for 3 hours (FIG. 37)
Protocol: 5×10^6 cells RPMI-8226 cells were treated with 0, 6.25, 12.5, and 25 μM SB216641 for 3 hours. Cells were lysed in lysis buffer (1% IGEPAL CA-635, 150 mM NaCl, 20 mM Tris-Cl pH 7.4, 1 mM PMSF, 1 mM EGTA, 1 mM NaF, 1 μg/mL aprotinin, 10 μg/mL leupeptin, 1 mM Na2OVa, 5 mM BGP) on ice for 15 minutes followed by centrifugation for 10 min to clear the lysate of membrane fragment. Supernatants were collected and protein concentrations determined with the BioRad Detergent Compatible Kit (Hercules, Calif.).
One-hundred micrograms of protein were loaded into each lane and separated through a 4% SDS-PAGE stacking gel and a 12% SDS-PAGE resolving gel. Proteins were electro-transferred to a 0.2 μm nitrocellulose membrane in transfer buffer (25 mM Tris, 192 mM glycine, 20% methanol, 0.1% SDS). Membranes were immuno-blotted with an anti-phosphoAkt antibody (New England Biolabs, Beverly, Mass.) to the serine-473 phosphorylation residue required for AKT activation and any antibody bound was visualized using an enhanced chemiluminescent system.

Row | Structure (SMILES) | activation / proliferative response [1] | in vitro activation / proliferation of (helper) T cells ([1]; in vitro) | DNA laddering (RPMI 8226 cells [2]) | apoptosis, annexin-V positive / PI negative cells (RPMI 8226 cells [3]) | duration of sleep ([4]; 15 mg/kg i.v. tail vein, BALB/c mice) | sedation / abnormal behavior ([4]; 15 mg/kg i.v. tail vein, BALB/c mice, observed over 72 hour period) | sedative effect ([4]; intravenous injection in an animal) | tumor cell burden [5] | inverse agonism / inhibition of 5-HT 2C receptor (human 5HT2C-INI receptor) | IC50 ([1]; ConA stimulation, read-out: apparent IC50) [nM] | activation / proliferative response ([6]; allogeneic stimulation, harvest 120 hours, drug titration (FIGS. 7B, 8B, 9B)) | IC50 ([6]; allogeneic stimuli (weaker signal strength), read-out: apparent IC50) [nM] | growth / proliferation of RPMI 8226 cells [7] | chromatin condensation / fragmentation (apoptosis) (RPMI-8226 cells) | change in cell morphology (cells) | phospho-(ser473)-AKT level (AKT) | phospho-(ser473)-AKT level (AKT; listed as SB216641)
1 | OCCN1CCN(CCCN2c3ccccc3Sc3ccc(C(F)(F)F)cc32)CC1 [Fluphenazine] | dramatic and dose-dependent decrease in proliferation | inhibits T cell responses | increase in DNA laddering over control cell extracts | significantly greater degree of apoptosis than any of the control cell populations | approximately 10 hours | instantly sedated | strong sedative, inducing sleep in an animal before the needle is withdrawn from the vein | reduces the tumor cell burden | potent inverse agonist; also recorded: effective inhibitor (inverse agonist) | – | – | – | – | – | – | – | –
2 | COc1ccc(NC(=O)c2ccc(-c3ccc(-c4noc(C)n4)cc3C)cc2)cc1OCCN(C)C [SB 216641] | complete inhibition of the activation response | – | increase in DNA laddering over control cell extracts | – | – | – | – | – | – | ~200 | complete inhibition of the activation response | ~50 | completely inhibited the growth of the cancer cells | Extensive chromatin condensation and nuclear fragmentation; also recorded: induced programmed cell death comparable to that induced by the topoisomerase I inhibitor, camptothecin | an increase in cell size | down-regulates the activity of AKT | dose dependant decrease in phosphor-(ser473)-AKT
